Measurements published in the PolyMetriX glass transition set.

SMILES | glass transition temperature [°C]
*/C=C(/*)CCCOC(=O)c1cc(-c2ccc(OC)cc2)ccc1-c1ccc(OC)cc1 (repeat unit) | 72.40
*C(=O)NC1CCC(CC2CCC(NC(=O)c3ccc(N4C(=O)c5ccc(*)cc5C4=O)cc3)CC2)CC1 (repeat unit) | 275.00
*C(=O)NCCCCCCNC(=O)c1ccc(N2C(=O)c3ccc(*)cc3C2=O)cc1 (repeat unit) | 225.00
*C(=O)Nc1ccc(C)cc1N1C(=O)CC(N2C(=O)c3ccc(*)cc3C2=O)C1=O (repeat unit) | 237.00
*C(=O)Nc1ccc(NC(=O)c2ccc3c(c2)C(=O)N(c2ccc(Oc4ccc(N5C(=O)c6ccc(*)cc6C5=O)cc4)cc2)C3=O)c(OCCCCCCS(=O)(=O)c2ccc(/C=C/c3ccc(N(C)C)cc3)cc2)c1 (repeat unit) | 192.00
*C/C=C/COC(=O)NCCCCCCNC(=O)O* (repeat unit) | -39.00
*CC(F)(F)C(F)(F)C(F)(F)COC(=O)NCC(F)(F)C(F)(F)C(F)(F)C(F)(F)CNC(=O)O* (repeat unit) | 25.00
*CC(F)(F)C(F)(F)COC(=O)NCCCCCCNC(=O)O* (repeat unit) | 9.00
*CCCCCCCCCCCCCCCCOC(=O)NCCCCCCNC(=O)O* (repeat unit) | 39.00
*CCCCCCCCCCCCCCNC(=O)NCCCCCCCCCCNC(=O)N* (repeat unit) | 40.00
*CCCCCCCCCCCCCCNC(=O)NCc1ccc(CNC(=O)N*)cc1 (repeat unit) | 54.00
*CCCCCCCCCCCCNC(=O)c1ccc(C(=O)N*)cc1 (repeat unit) | 130.00
*CCCCCCCCCCNC(=O)NCc1ccc(CNC(=O)N*)cc1 (repeat unit) | 55.00
*CCCCCCCCCNC(=S)N* (repeat unit) | 48.00
*CCCCCCCCCOC(=O)NCCCCCCNC(=O)O* (repeat unit) | 58.00
*CCCCCCCCNC(=O)NCc1ccc(CNC(=O)N*)cc1 (repeat unit) | 68.00
*CCCCCCCCNC(=O)c1ccc(C(=O)N*)c(Sc2ccccc2)c1 (repeat unit) | 110.00
*CCCCCCCCNC(=O)c1ccc(C(=O)N*)cc1 (repeat unit) | 123.00
*CCCCCCCCNC(=O)c1cccc(C(=O)N*)c1 (repeat unit) | 110.00

SMILES | glass transition temperature [°C]
*CCCCCCCNC(=O)N* (repeat unit) | 62.00
*CCCCCCNC(=O)c1ccc(C(=O)N*)c(Oc2ccc(Br)cc2)c1 (repeat unit) | 116.00
*CCCCCCNC(=O)c1ccc(C(=O)N*)c(Oc2ccc(F)cc2)c1 (repeat unit) | 113.00
*CCCCCCNC(=O)c1ccc(C(=O)N*)c(Oc2ccccc2)c1 (repeat unit) | 108.00
*CCCCCCNC(=O)c1ccc(C(=O)N*)c(Sc2ccccc2)c1 (repeat unit) | 121.00
*CCCCCCOC(=O)NCC(F)(F)C(F)(F)C(F)(F)C(F)(F)CNC(=O)O* (repeat unit) | 5.00
*CCCCCCOC(=O)NCCCCCCNC(=O)O* (repeat unit) | 168.00
*CCCCCNC(=O)c1ccc(C(=O)N*)cc1 (repeat unit) | 177.00
*CCCCCOC(=O)NCCCCCCNC(=O)O* (repeat unit) | 33.00
*CCCCCOC(=O)c1ccccc1C(=O)[O][Pb][O]C(=O)c1ccccc1C(=O)OCCCCCOC(=O)NCCCCCCNC(=O)O* (repeat unit) | -19.20
*CCCCOC(=O)NCC(F)(F)C(F)(F)C(F)(F)C(F)(F)CNC(=O)O* (repeat unit) | 33.00
*CCCCOC(=O)NCCCCCCNC(=O)O* (repeat unit) | 33.50
*CCCOC(=O)NCCCCCCNC(=O)O* (repeat unit) | 55.00
*CCN(CCOC(=O)NCCCCCCNC(=O)O*)c1ccccc1 (repeat unit) | 31.90
*CCOC(=O)NCCCCCCCCCNC(=O)O* (repeat unit) | 44.00
*CCOCCOCCOCCOCCOCCOC(=O)NCCCCCCNC(=O)O* (repeat unit) | -31.00
*COC(=O)NCCCCCCNC(=O)OCc1ccc(*)o1 (repeat unit) | 33.00
*NC(=O)NCCCCCCNC(=O)Nc1cccc(*)n1 (repeat unit) | 170.00
*NC(C)(CC)C(*)=O (repeat unit) | 74.2

SMILES | glass transition temperature [°C]
*NC(CCC(=O)Nc1ccc(N(c2ccccc2)c2ccccc2)cc1)C(*)=O (repeat unit) | 132.00
*NC(CCC(=O)OCCC)C(*)=O (repeat unit) | -10.00
*NC(CCC(=O)OCCCC)C(*)=O (repeat unit) | -15.00
*NC(CCC(=O)OCCCCCCCCCC)C(*)=O (repeat unit) | -62.00
*Nc1cc(NC(=O)c2cccc(C(*)=O)c2)cc(C(=O)Oc2ccc(Oc3ccc(C#N)c(C#N)c3)cc2)c1 (repeat unit) | 305.00
*Nc1ccc(Cc2ccc(NC(=O)NCCCCCCCCCCCCNC(*)=O)cc2)cc1 (repeat unit) | 51.00
*Nc1ccc(Cc2ccc(NC(=O)NCCCCCCNC(*)=O)cc2)cc1 (repeat unit) | 78.00
*Nc1ccc(NC(=O)c2ccc(NC(=O)CCCCCCCCCCCCC(=O)Nc3ccc(C(*)=O)cc3)cc2)cc1C(=O)OCCCCCCCCCCCCCC (repeat unit) | 204.50
*Nc1ccc(NC(=O)c2ccc(NC(=O)CCCCCCCCCCCCC(=O)Nc3ccc(C(*)=O)cc3)cc2)cc1C(=O)OCCCCCCCCCCCCCCCCCC (repeat unit) | 191.00
*Nc1cccc(NC(=O)c2cccc(C(=O)Nc3ccc(C(=O)NC(*)=S)cc3)c2)c1 (repeat unit) | 270.00
*[O][Zn][O]C(=O)c1ccccc1C(=O)OCCCCCOC(=O)NCCCCCCNC(=O)OCCCCCOC(=O)c1ccccc1C(*)=O (repeat unit) | -4.30
*Oc1cc(C(C)(C)C)c(Oc2ccc(C(=O)Nc3c(C)cc(Cc4cc(C)c(NC(=O)c5ccc(*)cc5)c(C(C)C)c4)cc3C(C)C)cc2)cc1C(C)(C)C (repeat unit) | 260.00
*Oc1ccc(/N=C/C=N/c2ccc(OC(=O)NCCCCCCNC(*)=O)cc2)cc1 (repeat unit) | 80.00
*Oc1ccc(C(*)=O)cc1CCCCC (repeat unit) | 50.00
*Oc1ccc(C2(c3ccc(Oc4c(F)c(F)c(C(=O)c5c(F)c(F)c(*)c(F)c5F)c(F)c4F)cc3)c3ccccc3-c3ccccc32)cc1 (repeat unit) | 223.00
*Oc1cccc(OC(=O)c2cc(OCCCCC)cc(C(*)=O)c2)c1 (repeat unit) | 96.00
*Oc1ccccc1C(=O)OC(=O)c1ccccc1OC(=O)C(CC)C(CC)C(*)=O (repeat unit) | 23.00
*c1ccc(C(=O)NCCCCCCCCNC(=O)c2ccc(-c3nc4ccccc4nc3*)cc2)cc1 (repeat unit) | 185.00
